These results are taken from US20150133492A1, “N-desmethyldauricine, A Novel Autophagic Enhancer for Treatment of Cancers and Neurodegenerative Conditions Thereof” (Macau University of Science and Technology, priority 2013, published 2015).

The subject of one experiment is Atg7+/+ cells. The experiment is described as follows: Annexin V flow cytometry cell death, Atg7 wild-type MEFs. The settings on record: 10 μM, 24 h. In kind it is cell-based, mouse. The method, then: Cell viability was measured using an annexin V staining kit (BD Biosciences, San Jose, Calif., USA). Briefly, Atg7 wild-type (Atg7^+/+ or Atg7-wt) and Atg7 deficient (Atg7^−/− or Atg7-ko) mouse embryonic fibroblasts (MEFs) were treated with the 10 μM N-desmethyldauricine for 24 h. Cells were then harvested and analysed by multiparametric flow cytometry using FITC-Annexin V and Propidium iodide staining (BD Biosciences, San Jose, Calif., USA) according to the manufacturer's instructions. Flow cytometry was then carried out using a FACSCalibur flow cytometer (BD Biosciences, San Jose, Calif., USA). Data acquisition and analysis was performed with CellQuest (BD Biosciences, San Jose, Calif., USA). Data were obtained from three independent experiments.
A general note: Flow cytometry measures light scatter and fluorescence of single cells or particles in a stream.

A further experiment relates to HeLa cells. Description: Calcium detection by flow cytometry (Fluo-3). The settings on record: 5 μM/10 μM, 1 h, 2 h, 4 h. In kind it is cell-based, human. The protocol: Changes in intracellular free calcium were measured by a fluorescent dye, Fluo-3, as described previously^18. Briefly, HeLa cells were washed twice with MEM medium after N-desmethyldauricine (LP-4) treatment (5 μM/10 μM) for various times (1 h, 2 h, 4 h). Then cell suspensions were incubated with 5 μM Fluo-3 at 37° C. for 30 min. Then the cells were washed twice with HBSS. After re-suspended cell samples were subjected to FACS analysis, at least 10,000 events were analyzed.

Experiment [1] concerns AMPK-mTOR signaling pathway. Description: Western blot of mTOR signaling marker proteins. The class given is cell-based, human. The settings on record: HeLa. The protocol: HeLa cells treated with indicated time and concentrations of N-desmethyldauricine were harvested and lysed in RIPA buffer (Cell Signaling). The cell lysates were then resolved by SDS-PAGE. After electrophoresis, the proteins from SDS-PAGE were transferred to nitrocellulose membrane which was then blocked with 5% non-fat dried milk for 60 minutes. The membrane was then incubated with P-p70S6K, p70S6K, P-AMPK, AMPK and actin primary antibodies (1:1000) in TBST overnight at 4° C. respectively. After that, the membrane was further incubated with HRP-conjugated secondary antibodies for 60 minutes. Finally, protein bands were visualized by using the ECL Western Blotting Detection Reagents (Invitrogen).
In general terms: In western blotting, separated proteins are transferred to a membrane and probed.

The subject of experiment [2] is EGFP-tagged mutant huntingtin (Q23, Q55, Q74). Description: Removal of mutant huntingtin by immunoblotting. The class given is cell-based. The settings on record: PC 12, 7.5 μM, 24 hours. The method, then: PC 12 cells were transfected transiently with EGFP-HDQ23/55/74 (Q23, Q55, Q74) plasmids for 24 hours using Lipofectamine Plus LTX reagent (Invitrogen) according to the manufacturer's protocol. The transfected cells were then treated with N-desmethyldauricine for 24 hours. The removal of mutant huntingtin, (Q23, Q55, Q74) were then quantitated by immunoblotting with antibody against EGFP.

`COc1cc2c(cc1OC)[C@@H](Cc1ccc(Oc3cc(C[C@H]4NCCc5cc(OC)c(OC)cc54)ccc3O)cc1)N(C)CC2` [N-desmethyldauricine]: the cell death entry with Atg7+/+ cells is given as “markedly induce cell death”. In addition, the cytosolic calcium level entry with HeLa cells is given as “increase”. In experiment [1], the p70S6K phosphorylation result is “concomitant reduction”. Also, the “phosphorylation of AMPK” value in experiment [1] (time dependent) is recorded as “activate”. For the same compound, the “clearance of overexpressed EGFP-tagged mutant huntingtin” value in experiment [2] is on record as “enhance the clearance”.
